From US20140342379A1, “Means and Methods for Assessing Gonadal Toxicity” (BASF SE, priority 2011, published 2014)
Marks after values point to notes of the source that are not given here.

System: male rats
Experiment: 28-day repeated dose study, plasma metabolite profiling (GC-MS, LC-MS), male rats
Assay type: in vivo, rat
Text: Drinking water was also offered ad libitum.

Q: Which “18-Hydroxy-11-deoxycorticosterone, plasma, treatment ratio versus control” value (day 7) does the source give for `CC(=O)CCC(C)=O` [2,5-hexanedione] here?
A: Its value is 0.89.

Q: What about the “Alanine, plasma, treatment ratio versus control” value (day 7) of the same molecule?
A: Its value is 0.71*.

Q: What about the “Arachidonic acid (C20:cis[5,8,11,14]4), plasma, treatment ratio versus control” value (day 7) of the same molecule?
A: The value was 0.9.

Q: What about the “Coenzyme Q9, plasma, treatment ratio versus control” value (day 7) of the same molecule?
A: The value was 0.89.

Q: What about the “Creatinine, plasma, treatment ratio versus control” value (day 7) of the same molecule?
A: The value was 1.21*.

Q: What about the “DAG (C18:1, C18:2), plasma, treatment ratio versus control” value (“DAG … treatment ratio versus control” below) (day 7) of the same molecule?
A: The value was 0.51*.

Q: And the “Fructose-6-phosphate, plasma, treatment ratio versus control” value (day 7)?
A: The value was 0.75*.

Q: And the “Galactose, lipid fraction, plasma, treatment ratio versus control” value (day 7)?
A: Its value is 0.96.

Q: What about the “Glucosamine, plasma, treatment ratio versus control” value (day 7) of the same molecule?
A: The value was 0.79*.

Q: And the “Glucose, plasma, treatment ratio versus control” value (day 7)?
A: The value was 0.85*.

Q: And the “Glycerol, polar fraction, plasma, treatment ratio versus control” value (day 7)?
A: Its value is 0.96.

Q: And the “Heneicosanoic acid (C21:0), plasma, treatment ratio versus control” value (day 7)?
A: Its value is 0.97.

Q: What about the “Lactate, plasma, treatment ratio versus control” value (day 7) of the same molecule?
A: The value was 0.82*.

Q: What about the “Linolenic acid (C18:cis[9,12,15]3), plasma, treatment ratio versus control” value (“Linolenic acid … treatment ratio versus control” below) (day 7) of the same molecule?
A: The value was 0.89*.

Q: What about the “Lysine, plasma, treatment ratio versus control” value (day 7) of the same molecule?
A: The value was 0.96*.

Q: And the “Malate, plasma, treatment ratio versus control” value (day 7)?
A: Its value is 0.79*.

Q: What about the “Oleic acid (C18:cis[9]1), plasma, treatment ratio versus control” value (day 7) of the same molecule?
A: Its value is 0.81*.

Q: What about the “Palmitoleic acid (C16:cis[9]1), plasma, treatment ratio versus control” value (day 7) of the same molecule?
A: Its value is 0.82*.

Q: And the “Phenylalanine, plasma, treatment ratio versus control” value (day 7)?
A: Its value is 0.85*.

Q: And the “Phosphate (inorganic and organic phosphates), plasma, treatment ratio versus control” value (day 7)?
A: The value was 0.89*.

Q: And the “Pyruvate, plasma, treatment ratio versus control” value (day 7)?
A: Its value is 1.04.

Q: And the “Spermidine, plasma, treatment ratio versus control” value (day 7)?
A: The value was 0.95.

Q: And the “TAG (C16:0,C16:1), plasma, treatment ratio versus control” value (“TAG … treatment ratio versus control” for short) (day 7)?
A: The value was 0.49*.

Q: What about the “Uracil, plasma, treatment ratio versus control” value (day 7) of the same molecule?
A: Its value is 0.85*.

Q: What about the “myo-Inositol, plasma, treatment ratio versus control” value (day 7) of the same molecule?
A: Its value is 0.71*.

Q: And the “trans-4-Hydroxyproline, plasma, treatment ratio versus control” value (day 7)?
A: Its value is 0.84*.

Q: And the “18-Hydroxy-11-deoxycorticosterone, plasma, treatment ratio versus control” value (day 14)?
A: Its value is 0.33*.

Q: And the “Alanine, plasma, treatment ratio versus control” value (day 14)?
A: The value was 0.76*.

Q: And the “Arachidonic acid (C20:cis[5,8,11,14]4), plasma, treatment ratio versus control” value (day 14)?
A: The value was 0.93.

Q: And the “Coenzyme Q9, plasma, treatment ratio versus control” value (day 14)?
A: Its value is 1.12*.

Q: What about the “Creatinine, plasma, treatment ratio versus control” value (day 14) of the same molecule?
A: The value was 1.64*.

Q: What about the “DAG … treatment ratio versus control” value (day 14) of the same molecule?
A: The value was 0.6*.

Q: What about the “Fructose-6-phosphate, plasma, treatment ratio versus control” value (day 14) of the same molecule?
A: Its value is 0.7*.

Q: What about the “Galactose, lipid fraction, plasma, treatment ratio versus control” value (day 14) of the same molecule?
A: Its value is 0.97.

Q: And the “Glucosamine, plasma, treatment ratio versus control” value (day 14)?
A: The value was 0.9.

Q: What about the “Glucose, plasma, treatment ratio versus control” value (day 14) of the same molecule?
A: The value was 0.89*.

Q: What about the “Glycerol, polar fraction, plasma, treatment ratio versus control” value (day 14) of the same molecule?
A: The value was 0.98.

Q: And the “Heneicosanoic acid (C21:0), plasma, treatment ratio versus control” value (day 14)?
A: Its value is 0.84.

Q: What about the “Lactate, plasma, treatment ratio versus control” value (day 14) of the same molecule?
A: Its value is 0.69*.

Q: And the “Linolenic acid … treatment ratio versus control” value (day 14)?
A: The value was 0.57*.

Q: What about the “Lysine, plasma, treatment ratio versus control” value (day 14) of the same molecule?
A: The value was 0.93*.

Q: What about the “Malate, plasma, treatment ratio versus control” value (day 14) of the same molecule?
A: Its value is 0.82*.

Q: What about the “Oleic acid (C18:cis[9]1), plasma, treatment ratio versus control” value (day 14) of the same molecule?
A: Its value is 0.81*.

Q: And the “Palmitoleic acid (C16:cis[9]1), plasma, treatment ratio versus control” value (day 14)?
A: Its value is 1.03.

Q: What about the “Phenylalanine, plasma, treatment ratio versus control” value (day 14) of the same molecule?
A: The value was 0.84*.

Q: What about the “Phosphate (inorganic and organic phosphates), plasma, treatment ratio versus control” value (day 14) of the same molecule?
A: Its value is 1.

Q: And the “Pyruvate, plasma, treatment ratio versus control” value (day 14)?
A: Its value is 0.95.

Q: And the “Spermidine, plasma, treatment ratio versus control” value (day 14)?
A: The value was 0.89*.

Q: And the “TAG … treatment ratio versus control” value (day 14)?
A: The value was 0.67*.

Q: What about the “Uracil, plasma, treatment ratio versus control” value (day 14) of the same molecule?
A: Its value is 0.83*.

Q: And the “myo-Inositol, plasma, treatment ratio versus control” value (day 14)?
A: The value was 0.79*.

Q: And the “trans-4-Hydroxyproline, plasma, treatment ratio versus control” value (day 14)?
A: The value was 0.91*.

Q: And the “18-Hydroxy-11-deoxycorticosterone, plasma, treatment ratio versus control” value (day 28)?
A: Its value is 0.24*.

Q: And the “Alanine, plasma, treatment ratio versus control” value (day 28)?
A: Its value is 0.77*.

Q: What about the “Arachidonic acid (C20:cis[5,8,11,14]4), plasma, treatment ratio versus control” value (day 28) of the same molecule?
A: The value was 1.03.

Q: What about the “Coenzyme Q9, plasma, treatment ratio versus control” value (day 28) of the same molecule?
A: The value was 1.02.

Q: What about the “Creatinine, plasma, treatment ratio versus control” value (day 28) of the same molecule?
A: Its value is 1.35*.

Q: What about the “DAG … treatment ratio versus control” value (day 28) of the same molecule?
A: The value was 0.79*.

Q: What about the “Fructose-6-phosphate, plasma, treatment ratio versus control” value (day 28) of the same molecule?
A: The value was 0.69*.

Q: And the “Galactose, lipid fraction, plasma, treatment ratio versus control” value (day 28)?
A: Its value is 0.99.

Q: What about the “Glucosamine, plasma, treatment ratio versus control” value (day 28) of the same molecule?
A: The value was 0.91*.

Q: What about the “Glucose, plasma, treatment ratio versus control” value (day 28) of the same molecule?
A: The value was 0.85*.

Q: What about the “Glycerol, polar fraction, plasma, treatment ratio versus control” value (day 28) of the same molecule?
A: The value was 0.8*.

Q: And the “Heneicosanoic acid (C21:0), plasma, treatment ratio versus control” value (day 28)?
A: The value was 0.99.

Q: And the “Lactate, plasma, treatment ratio versus control” value (day 28)?
A: Its value is 0.66*.

Q: And the “Linolenic acid … treatment ratio versus control” value (day 28)?
A: The value was 0.92*.

Q: What about the “Lysine, plasma, treatment ratio versus control” value (day 28) of the same molecule?
A: The value was 0.96.

Q: What about the “Malate, plasma, treatment ratio versus control” value (day 28) of the same molecule?
A: Its value is 0.74*.

Q: What about the “Oleic acid (C18:cis[9]1), plasma, treatment ratio versus control” value (day 28) of the same molecule?
A: Its value is 0.92*.

Q: What about the “Palmitoleic acid (C16:cis[9]1), plasma, treatment ratio versus control” value (day 28) of the same molecule?
A: The value was 1.11.

Q: And the “Phenylalanine, plasma, treatment ratio versus control” value (day 28)?
A: Its value is 0.89*.

Q: What about the “Phosphate (inorganic and organic phosphates), plasma, treatment ratio versus control” value (day 28) of the same molecule?
A: Its value is 1.01.

Q: What about the “Pyruvate, plasma, treatment ratio versus control” value (day 28) of the same molecule?
A: Its value is 0.72*.

Q: And the “Spermidine, plasma, treatment ratio versus control” value (day 28)?
A: Its value is 0.94.

Q: And the “TAG … treatment ratio versus control” value (day 28)?
A: Its value is 0.95.

Q: And the “Uracil, plasma, treatment ratio versus control” value (day 28)?
A: The value was 0.87*.

Q: And the “myo-Inositol, plasma, treatment ratio versus control” value (day 28)?
A: The value was 0.89.

Q: What about the “trans-4-Hydroxyproline, plasma, treatment ratio versus control” value (day 28) of the same molecule?
A: Its value is 0.87*.
